Experimental data: ChEMBL document CHEMBL3853264 (Medchemcomm, 2016)
In brackets after ≈: the same amount, converted by molar mass.

Columns and labels:
[1] = Intrinsic clearance in rat liver microsomes; assay type: ADME; settings: read-out: CLH
[2] = tested on: P-gp; experiment: Substrate activity at p-gp (unknown origin) assessed as efflux ratio of permeability; assay type: ADME; settings: human, not told
[3] = target: BCRP (ABCG2) (Homo sapiens, UniProt Q9UNQ0); experiment: Substrate activity at BCRP (unknown origin) assessed as efflux ratio of permeability; assay type: ADME; settings: not told
[4] = Solubility of the compound at pH 6.5; assay type: physicochemical; settings: buffer
[5] = Dissociation constant, pKa of the compound; assay type: physicochemical
[6] = Intrinsic clearance in human liver microsomes; assay type: ADME; settings: read-out: CLH
[7] = Octanol-water partition co-efficient, log D of the compound by shake flask method; assay type: physicochemical
[8] = Permeability in RRCK cells; assay type: ADME, cell-based, Canis lupus familiaris, MDCKII-LE; settings: dog, MDCK; read-out: permeability
[9] = Intrinsic clearance in dog liver microsomes; assay type: ADME, Canis lupus familiaris; settings: read-out: CLH
[10] = Fraction unbound in human plasma; assay type: ADME, cell-free
[11] = Fraction unbound in rat plasma; assay type: ADME, cell-free
[12] = Fraction unbound in dog plasma; assay type: ADME, cell-free, Canis lupus familiaris
[13] = target: Solute carrier organic anion transporter family member 1B1 (Homo sapiens, UniProt Q9Y6L6); experiment: Drug uptake assessed as human OATP1B1-mediated drug accumulation by cell-based assay relative to wild type protein; assay type: ADME
[14] = target: Solute carrier organic anion transporter family member 1B3 (Homo sapiens, UniProt Q9NPD5); experiment: Drug uptake assessed as human OATP1B3-mediated drug accumulation by cell-based assay relative to wild type protein; assay type: ADME
[15] = target: Solute carrier organic anion transporter family member 2B1 (Homo sapiens, UniProt O94956); experiment: Drug uptake assessed as human OATP2B1-mediated drug accumulation by cell-based assay relative to wild type protein; assay type: ADME
[16] = target: Cytochrome P450 1A2 (Homo sapiens, UniProt P05177); experiment: Inhibition of CYP1A2 (unknown origin); assay type: ADME
[17] = target: Cytochrome P450 2C8 (Homo sapiens, UniProt P10632); experiment: Inhibition of CYP2C8 (unknown origin); assay type: ADME
[18] = target: Cytochrome P450 2C9 (Homo sapiens, UniProt P11712); experiment: Inhibition of CYP2C9 (unknown origin); assay type: ADME
[19] = target: Cytochrome P450 2C19 (Homo sapiens, UniProt P33261); experiment: Inhibition of CYP2C19 (unknown origin); assay type: ADME
[20] = target: Cytochrome P450 2D6 (Homo sapiens, UniProt P10635); experiment: Inhibition of CYP2D6 (unknown origin); assay type: ADME
[21] = target: Cytochrome P450 3A4 (Homo sapiens, UniProt P08684); experiment: Inhibition of CYP3A4 (unknown origin); assay type: ADME
[22] = target: Solute carrier family 22 member 6 (Homo sapiens, UniProt Q4U2R8); experiment: Inhibition of OAT1 (unknown origin)
[23] = target: Organic anion transporter 3 (Homo sapiens, UniProt Q8TCC7); experiment: Inhibition of OAT3 (unknown origin)
[24] = target: Solute carrier family 22 member 11 (Homo sapiens, UniProt Q9NSA0); experiment: Inhibition of OAT4 (unknown origin)
[25] = Cytotoxicity against THLE cells; assay type: toxicity, cell-based; settings: human
[26] = Mutagenicity in […] by Ames test in presence of […] fraction; assay type: toxicity
[27] = Mutagenicity in […] by Ames test in absence of […] fraction; assay type: toxicity
[28] = target: Voltage-gated inwardly rectifying potassium channel KCNH2 (Homo sapiens, UniProt Q12809); experiment: Inhibition of human ERG by patch clamp method
[29] = target: Sodium channel protein type 5 subunit alpha (Homo sapiens, UniProt Q14524); experiment: Inhibition of human NaV1.5 expressed in HEK293 cells by patch clamp method; assay type: cell-based
[30] = target: Sodium channel protein type 9 subunit alpha (Homo sapiens, UniProt Q15858); experiment: Inhibition of NaV1.7 (unknown origin) by electrophysiology assay
[31] = Inhibition of GABAA receptor (unknown origin); set-up: species or system Homo sapiens
[32] = Intrinsic clearance in human hepatocytes assessed per 10^6 cells; assay type: ADME, cell-based, Hepatocyte; settings: read-out: CLH
[33] = Intrinsic clearance in rat hepatocytes assessed per 10^6 cells; assay type: ADME, cell-based, Hepatocyte; settings: read-out: CLH
[34] = Intrinsic clearance in dog hepatocytes assessed per 10^6 cells; assay type: ADME, cell-based, Canis lupus familiaris, Hepatocyte; settings: read-out: CLH
[35] = Plasma clearance in rat at 0.5 mg/kg, iv and 1 mg/kg, po; assay type: ADME, organism-based
[36] = Unbound clearance in rat at 0.5 mg/kg, iv and 1 mg/kg, po; assay type: ADME, organism-based; settings: in vivo
[37] = Half life in rat at 0.5 mg/kg, iv and 1 mg/kg, po; assay type: ADME, organism-based; settings: in vivo
[38] = Volume of distribution at steady state in rat at 0.5 mg/kg, iv and 1 mg/kg, po; assay type: ADME, organism-based; settings: in vivo, read-out: Vdss
[39] = Oral bioavailability in rat at 1 mg/kg; assay type: ADME, organism-based; settings: in vivo
[40] = Drug excretion in bile of bile duct cannulated rat; assay type: ADME; settings: read-out: Drug excretion
[41] = Drug metabolism in human liver microsomes assessed as 2-chloro-4-(2-cyano-4-(N-(5-fluoropyridin-2-yl)sulfamoyl)phenoxy)benzoic acid formation; assay type: ADME
[42] = Drug metabolism in human hepatocytes assessed as 2-chloro-4-(2-cyano-4-(N-(5-fluoropyridin-2-yl)sulfamoyl)phenoxy)benzoic acid formation; assay type: ADME, cell-based, Hepatocyte
[43] = Drug metabolism in rat hepatocytes assessed as (2S,3S,4S,5R,6R)-6-(2-chloro-4-(2-cyano-4-(N-(5-fluoropyridin-2-yl)sulfamoyl)phenoxy)benzyloxy)-3,4,5-trihydroxytetrahydro-2H-pyran-2-carboxylic acid formation; assay type: ADME, cell-based, Hepatocyte
[44] = Toxicity in po dosed dog measured assessed as drug tolerance measured over 14 days; assay type: organism-based, Canis lupus familiaris; settings: in vivo, 336 h
[45] = Toxicity in dog up to 100 mg/kg/day, po measured over 14 days by clinical pathology test; assay type: organism-based, Canis lupus familiaris; settings: in vivo, 336 h
[46] = tested on: Rattus norvegicus; experiment: Toxicity in rat assessed as change in body weight up to 300 mg/kg/day, po measured over 14 days; assay type: organism-based; settings: in vivo, 336 h
[47] = tested on: Rattus norvegicus; experiment: Toxicity in rat assessed as change in food consumption up to 300 mg/kg/day, po measured over 14 days; assay type: organism-based; settings: in vivo, 336 h
[48] = tested on: Rattus norvegicus; experiment: Toxicity in rat assessed as hematological changes up to 300 mg/kg/day, po measured over 14 days; assay type: organism-based; settings: in vivo, 336 h
[49] = tested on: Rattus norvegicus; experiment: Toxicity in rat up to 300 mg/kg/day, po measured over 14 days by clinical chemistry study; assay type: organism-based; settings: in vivo, 336 h
[50] = tested on: Rattus norvegicus; experiment: Toxicity in rat assessed as change in organ weight up to 300 mg/kg/day, po measured over 14 days; assay type: organism-based; settings: in vivo, 336 h
[51] = tested on: Rattus norvegicus; experiment: Toxicity in rat up to 300 mg/kg/day, po measured over 14 days by necropsy; assay type: organism-based; settings: in vivo, 336 h
[52] = tested on: Rattus norvegicus; experiment: Toxicity in rat up to 300 mg/kg/day, po measured over 14 days by microscopic study; assay type: organism-based; settings: in vivo, 336 h
[53] = Unbound Cmax in rat at 300 mg/kg, po administered as single dose measured on day 14; assay type: ADME, organism-based; settings: in vivo
[54] = Average plasma concentration in rat at 300 mg/kg, po administered as single dose measured on day 14; assay type: ADME, organism-based; settings: in vivo
[55] = tested on: Rattus norvegicus; experiment: Toxicity in po dosed rat assessed as drug tolerance measured over 14 days; assay type: organism-based; settings: in vivo, 336 h
[56] = Toxicity in dog up to 100 mg/kg/day, po measured over 14 days by histologic test; assay type: organism-based, Canis lupus familiaris; settings: in vivo, 336 h
[57] = Toxicity in dog assessed as emesis at 100 mg/kg/day, po measured over 14 days by histologic test; assay type: organism-based, Canis lupus familiaris; settings: in vivo, 336 h
[58] = Toxicity in dog assessed as salivation at 100 mg/kg/day, po measured over 14 days by histologic test; assay type: organism-based, Canis lupus familiaris; settings: in vivo, 336 h
[59] = Toxicity in dog assessed as decrease in hepatic glycogen content at 100 mg/kg/day, po measured over 14 days; assay type: organism-based, Canis lupus familiaris; settings: in vivo, 336 h
[60] = Toxicity in dog assessed as decrease in serum glucose at 100 mg/kg/day, po measured over 14 days; assay type: organism-based, Canis lupus familiaris; settings: in vivo, 336 h
[61] = Unbound Cmax in dog at 100 mg/kg, po administered as single dose measured on day 14; assay type: ADME, organism-based, Canis lupus familiaris; settings: in vivo
[62] = Average plasma concentration in dog at 100 mg/kg, po administered as single dose measured on day 14; assay type: ADME, organism-based, Canis lupus familiaris; settings: in vivo
[63] = tested on: Rattus norvegicus; experiment: Cardiovascular toxicity in rat up to 30 mg/kg/day, po measured over 14 days; assay type: organism-based; settings: in vivo, 336 h
[64] = tested on: Rattus norvegicus; experiment: Toxicity in rat assessed as increase in blood pressure at 100 mg/kg/day, po measured over 14 days; assay type: organism-based; settings: in vivo, 336 h
[65] = Unbound Cmax in rat at 30 mg/kg, po administered as single dose measured on day 14; assay type: ADME, organism-based; settings: in vivo
[66] = Average plasma concentration in rat at 30 mg/kg, po administered as single dose measured on day 14; assay type: ADME, organism-based; settings: in vivo
[67] = target: T1, Solute carrier family 22 member 12 (Homo sapiens, UniProt Q96S37); experiment: Inhibition of human C-terminal eGFP-tagged URAT1 long isoform expressed in CHO cells assessed as decrease in [14C]-uric acid uptake preincubated for 15 mins followed by [14C]-uric acid addition and incubated in dark for 3 hrs by scintillation counting method; assay type: cell-based
T1 sequence (Q96S37 whole entry): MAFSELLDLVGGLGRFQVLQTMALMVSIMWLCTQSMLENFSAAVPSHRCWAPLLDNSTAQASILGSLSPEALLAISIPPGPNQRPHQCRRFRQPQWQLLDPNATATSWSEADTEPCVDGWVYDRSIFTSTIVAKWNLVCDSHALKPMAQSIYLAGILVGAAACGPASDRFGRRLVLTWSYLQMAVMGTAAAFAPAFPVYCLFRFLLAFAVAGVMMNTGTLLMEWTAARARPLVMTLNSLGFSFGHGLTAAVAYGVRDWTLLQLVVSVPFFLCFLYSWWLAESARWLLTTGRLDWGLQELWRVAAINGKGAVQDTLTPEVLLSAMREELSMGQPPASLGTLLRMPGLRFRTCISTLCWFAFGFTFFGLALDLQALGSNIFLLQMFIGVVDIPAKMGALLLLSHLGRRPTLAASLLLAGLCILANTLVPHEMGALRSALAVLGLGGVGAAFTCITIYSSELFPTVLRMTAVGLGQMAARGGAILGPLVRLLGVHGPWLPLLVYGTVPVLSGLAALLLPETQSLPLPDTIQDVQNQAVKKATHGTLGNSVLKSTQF

Chain of Cytochrome P450 2C19 (P33261 whole entry): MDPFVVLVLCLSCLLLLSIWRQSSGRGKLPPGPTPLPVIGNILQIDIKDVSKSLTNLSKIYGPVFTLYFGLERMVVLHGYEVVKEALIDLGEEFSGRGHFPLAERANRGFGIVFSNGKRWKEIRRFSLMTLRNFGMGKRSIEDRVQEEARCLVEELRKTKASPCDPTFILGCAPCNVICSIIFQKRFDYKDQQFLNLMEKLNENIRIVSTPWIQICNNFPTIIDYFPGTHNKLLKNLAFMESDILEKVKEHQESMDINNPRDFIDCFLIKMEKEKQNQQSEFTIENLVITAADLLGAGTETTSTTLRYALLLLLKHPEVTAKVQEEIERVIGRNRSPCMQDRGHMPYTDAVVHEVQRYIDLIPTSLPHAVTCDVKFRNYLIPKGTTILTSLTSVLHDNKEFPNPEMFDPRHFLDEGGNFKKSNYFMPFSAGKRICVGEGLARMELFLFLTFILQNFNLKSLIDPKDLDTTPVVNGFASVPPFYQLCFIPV
Chain of Solute carrier organic anion transporter family member 1B1 (Q9Y6L6 whole entry): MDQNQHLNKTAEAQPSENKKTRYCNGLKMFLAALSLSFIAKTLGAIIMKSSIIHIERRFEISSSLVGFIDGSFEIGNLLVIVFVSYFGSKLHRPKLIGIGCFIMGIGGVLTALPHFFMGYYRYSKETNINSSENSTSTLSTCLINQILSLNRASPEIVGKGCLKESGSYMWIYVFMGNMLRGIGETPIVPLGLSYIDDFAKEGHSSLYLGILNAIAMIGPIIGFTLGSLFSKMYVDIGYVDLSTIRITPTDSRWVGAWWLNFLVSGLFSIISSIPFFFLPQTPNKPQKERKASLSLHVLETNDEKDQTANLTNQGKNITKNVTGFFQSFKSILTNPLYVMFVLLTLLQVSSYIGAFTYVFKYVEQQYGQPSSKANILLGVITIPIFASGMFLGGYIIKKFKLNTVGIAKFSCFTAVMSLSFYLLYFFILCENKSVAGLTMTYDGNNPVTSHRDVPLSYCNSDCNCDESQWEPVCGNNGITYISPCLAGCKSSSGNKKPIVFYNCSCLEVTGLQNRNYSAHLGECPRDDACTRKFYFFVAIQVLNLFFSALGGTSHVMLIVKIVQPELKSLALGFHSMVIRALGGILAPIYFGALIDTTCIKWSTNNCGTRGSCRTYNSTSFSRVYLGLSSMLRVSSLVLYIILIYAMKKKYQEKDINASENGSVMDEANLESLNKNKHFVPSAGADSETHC
Chain of Cytochrome P450 3A4 (P08684 whole entry): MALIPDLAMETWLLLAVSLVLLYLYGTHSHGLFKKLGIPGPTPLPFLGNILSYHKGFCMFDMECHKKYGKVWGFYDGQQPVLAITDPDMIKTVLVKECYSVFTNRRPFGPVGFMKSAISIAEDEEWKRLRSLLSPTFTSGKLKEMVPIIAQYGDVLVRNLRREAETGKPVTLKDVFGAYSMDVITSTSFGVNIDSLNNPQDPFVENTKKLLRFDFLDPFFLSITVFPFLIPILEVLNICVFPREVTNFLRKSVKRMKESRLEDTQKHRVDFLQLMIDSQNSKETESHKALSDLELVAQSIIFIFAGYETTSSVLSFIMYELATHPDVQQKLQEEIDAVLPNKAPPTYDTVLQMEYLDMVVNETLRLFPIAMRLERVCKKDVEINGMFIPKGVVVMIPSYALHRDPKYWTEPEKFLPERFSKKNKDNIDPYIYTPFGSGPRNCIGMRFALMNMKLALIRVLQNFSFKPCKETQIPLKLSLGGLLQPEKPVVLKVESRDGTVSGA
Chain of Voltage-gated inwardly rectifying potassium channel KCNH2 (Q12809 whole entry): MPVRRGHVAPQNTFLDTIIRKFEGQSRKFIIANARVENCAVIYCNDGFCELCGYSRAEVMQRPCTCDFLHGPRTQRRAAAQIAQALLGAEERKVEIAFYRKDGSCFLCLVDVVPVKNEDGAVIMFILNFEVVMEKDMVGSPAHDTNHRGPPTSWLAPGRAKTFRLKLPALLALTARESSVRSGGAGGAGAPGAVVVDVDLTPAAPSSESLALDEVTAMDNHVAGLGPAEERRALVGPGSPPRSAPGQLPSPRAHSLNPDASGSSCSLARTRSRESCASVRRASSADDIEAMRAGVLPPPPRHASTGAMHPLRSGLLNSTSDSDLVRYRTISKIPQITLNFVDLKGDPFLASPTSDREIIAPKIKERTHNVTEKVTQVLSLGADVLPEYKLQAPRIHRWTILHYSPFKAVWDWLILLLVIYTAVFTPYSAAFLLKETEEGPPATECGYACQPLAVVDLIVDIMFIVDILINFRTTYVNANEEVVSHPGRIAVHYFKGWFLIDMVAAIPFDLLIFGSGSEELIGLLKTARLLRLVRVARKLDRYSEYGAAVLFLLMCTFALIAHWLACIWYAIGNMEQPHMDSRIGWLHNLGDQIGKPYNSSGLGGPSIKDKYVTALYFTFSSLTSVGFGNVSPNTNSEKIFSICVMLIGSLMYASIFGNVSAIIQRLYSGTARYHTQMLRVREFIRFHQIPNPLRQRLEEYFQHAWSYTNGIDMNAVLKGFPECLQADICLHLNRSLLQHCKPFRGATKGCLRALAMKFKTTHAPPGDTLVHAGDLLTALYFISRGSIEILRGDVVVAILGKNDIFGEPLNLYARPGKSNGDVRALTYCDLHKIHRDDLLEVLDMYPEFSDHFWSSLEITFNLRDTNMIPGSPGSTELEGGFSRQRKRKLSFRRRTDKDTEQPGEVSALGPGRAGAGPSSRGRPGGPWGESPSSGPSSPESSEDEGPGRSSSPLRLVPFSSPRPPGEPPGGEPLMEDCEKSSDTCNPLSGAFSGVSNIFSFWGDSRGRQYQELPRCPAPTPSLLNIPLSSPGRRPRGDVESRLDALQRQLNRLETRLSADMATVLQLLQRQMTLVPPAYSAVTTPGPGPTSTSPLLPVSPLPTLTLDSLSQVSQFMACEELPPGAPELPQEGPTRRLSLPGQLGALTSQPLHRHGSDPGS
Chain of Cytochrome P450 1A2 (P05177 whole entry): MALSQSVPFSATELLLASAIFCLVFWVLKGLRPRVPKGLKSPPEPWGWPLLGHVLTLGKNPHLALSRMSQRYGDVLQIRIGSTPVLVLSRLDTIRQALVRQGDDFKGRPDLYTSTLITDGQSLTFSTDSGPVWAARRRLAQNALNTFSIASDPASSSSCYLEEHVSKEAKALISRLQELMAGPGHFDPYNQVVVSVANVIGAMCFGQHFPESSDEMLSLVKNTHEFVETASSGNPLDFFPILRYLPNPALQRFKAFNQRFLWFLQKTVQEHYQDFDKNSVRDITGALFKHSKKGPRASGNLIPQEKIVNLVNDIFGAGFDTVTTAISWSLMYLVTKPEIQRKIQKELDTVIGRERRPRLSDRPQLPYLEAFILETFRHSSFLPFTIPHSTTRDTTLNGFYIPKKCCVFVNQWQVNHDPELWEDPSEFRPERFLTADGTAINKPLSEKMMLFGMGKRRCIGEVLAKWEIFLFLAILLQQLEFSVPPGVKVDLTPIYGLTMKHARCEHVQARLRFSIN
Chain of BCRP (ABCG2) (Q9UNQ0 whole entry): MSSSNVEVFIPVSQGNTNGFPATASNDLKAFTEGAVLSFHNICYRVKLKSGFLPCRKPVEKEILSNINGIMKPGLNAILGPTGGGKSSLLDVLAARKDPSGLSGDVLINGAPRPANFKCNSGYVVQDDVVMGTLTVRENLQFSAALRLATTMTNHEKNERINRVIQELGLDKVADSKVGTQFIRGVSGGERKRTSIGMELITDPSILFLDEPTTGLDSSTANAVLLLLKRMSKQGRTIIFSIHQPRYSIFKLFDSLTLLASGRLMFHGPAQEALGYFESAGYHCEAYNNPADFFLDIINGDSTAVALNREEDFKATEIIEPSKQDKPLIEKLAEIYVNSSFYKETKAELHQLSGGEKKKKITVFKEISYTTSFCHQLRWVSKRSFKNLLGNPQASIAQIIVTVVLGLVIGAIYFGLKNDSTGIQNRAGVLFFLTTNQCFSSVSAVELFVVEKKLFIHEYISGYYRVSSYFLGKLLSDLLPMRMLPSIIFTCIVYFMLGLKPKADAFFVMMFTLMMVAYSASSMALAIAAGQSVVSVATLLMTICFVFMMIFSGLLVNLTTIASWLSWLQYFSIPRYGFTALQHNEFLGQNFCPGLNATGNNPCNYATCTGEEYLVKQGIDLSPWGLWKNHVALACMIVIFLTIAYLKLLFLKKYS
Chain of Solute carrier organic anion transporter family member 1B3 (Q9NPD5 whole entry): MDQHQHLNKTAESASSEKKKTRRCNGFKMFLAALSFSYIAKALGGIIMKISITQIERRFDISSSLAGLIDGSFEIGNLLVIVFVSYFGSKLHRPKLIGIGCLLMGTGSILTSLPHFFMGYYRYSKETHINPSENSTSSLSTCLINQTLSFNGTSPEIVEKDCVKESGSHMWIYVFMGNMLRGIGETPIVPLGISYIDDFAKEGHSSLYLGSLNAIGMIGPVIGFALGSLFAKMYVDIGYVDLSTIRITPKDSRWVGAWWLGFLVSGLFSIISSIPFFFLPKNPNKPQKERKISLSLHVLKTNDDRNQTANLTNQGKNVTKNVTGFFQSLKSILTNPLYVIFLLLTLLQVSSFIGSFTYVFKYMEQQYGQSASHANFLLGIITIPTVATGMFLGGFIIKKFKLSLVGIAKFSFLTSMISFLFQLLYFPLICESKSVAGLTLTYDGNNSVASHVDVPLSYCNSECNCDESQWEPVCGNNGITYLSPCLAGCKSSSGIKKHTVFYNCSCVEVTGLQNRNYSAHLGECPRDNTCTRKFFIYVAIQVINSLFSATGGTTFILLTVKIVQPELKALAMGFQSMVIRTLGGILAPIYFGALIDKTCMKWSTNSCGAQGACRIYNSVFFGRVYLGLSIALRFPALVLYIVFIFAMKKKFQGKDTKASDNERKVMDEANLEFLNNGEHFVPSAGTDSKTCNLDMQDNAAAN

N#Cc1cc(S(=O)(=O)Nc2ccc(F)cn2)ccc1Oc1ccc(CO)c(Cl)c1
microsomal CLint [1]: < 14 µL/min/mg
efflux ratio [2]: 1.9
efflux ratio [3]: 34
solubility [4]: 15.3 µM (≈ 6.64 µg/mL)
pKa [5]: 5.7
microsomal CLint [6]: < 10 µL/min/mg
logD [7]: 2.1
Papp [8]: 12 ×10⁻⁶ cm/s
microsomal CLint [9]: < 18 µL/min/mg
fraction unbound [10]: 0.0083
fraction unbound [11]: 0.0043
fraction unbound [12]: 0.014
fold change (FC) [13]: 1.181
fold change (FC) [14]: 1.124
fold change (FC) [15]: 1.48
IC50 [16]: > 30 µM
IC50 [17]: 9.9 µM
IC50 [18]: 2 µM
IC50 [19]: 17.5 µM
IC50 [20]: > 30 µM
IC50 [21]: > 30 µM
IC50 [22]: 14.3 µM
IC50 [23]: 0.5 µM
IC50 [24]: 15 µM
Activity [25]: 105 µM
Activity [26]: Non-Toxic
Activity [27]: Non-Toxic
IC50 [28]: > 100 µM
IC50 [29]: > 30 µM
IC50 [30]: > 30 µM
Ki [31]: > 10 µM
hepatocyte CLint [32]: 23 µL/min/1e6 cells
hepatocyte CLint [33]: 82 µL/min/1e6 cells
hepatocyte CLint [34]: < 6 µL/min/1e6 cells
clearance [35]: 1.3 mL/min/kg
CL free [36]: 93 mL/min/kg
half-life [37]: 3.9 h
Vd [38]: 0.27 L/kg
bioavailability [39]: 50%
dose excreted [40]: 10%
Drug metabolism [41]: Metabolite_Detected
Drug metabolism [42]: Metabolite_Detected
Drug metabolism [43]: Metabolite_Detected
Activity [44]: <= 100 mg/kg/day
Activity [45]: Non-Toxic
Activity [46]: Non-Toxic
Activity [47]: Non-Toxic
Activity [48]: Non-Toxic
Activity [49]: Non-Toxic
Activity [50]: Non-Toxic
Activity [51]: Non-Toxic
Activity [52]: Non-Toxic
fCmax [53]: 537 nM
Cave [54]: 240 nM
Activity [55]: <= 300 mg/kg/day
Activity [56]: Non-Toxic
Activity [57]: Toxic
Activity [58]: Toxic
Activity [59]: Toxic
Activity [60]: Toxic
fCmax [61]: 3.905 µM
Cave [62]: 1019 nM
Activity [63]: Non-Toxic
Activity [64]: Non-Toxic
fCmax [65]: 98 nM
Cave [66]: 43 nM

N#Cc1ccc(Oc2ccc(S(=O)(=O)Nc3ccc(F)cn3)cc2F)cc1F
IC50 [67]: 0.382 µM

N#Cc1ccc(Oc2ccc(S(=O)(=O)Nc3ncns3)cc2C#N)cc1Cl
IC50 [67]: 1.12 µM
